Assay results as given in the NIST ThermoML archive (doi:10.1021/je060260h).
Numbers after ± are expanded uncertainties.

Test: refractive index (Na D-line) (dimensionless)
Settings: 298.15 K; 101.33 kPa; Liquid; Standard Abbe refractometry

refractive index | SMILES
1.40925 ± 0.00037 | CCCCn1cc[n+](C)c1.F[P-](F)(F)(F)(F)F [1-butyl-3-methylimidazolium hexafluorophosphate]
1.39686 ± 0.00033 | CCCCO [butan-1-ol]
